Measured values: patent publication US11186576B2, “Pyrazolo[1,5-A][1,3,5]triazine and pyrazolo[1,5-A]pyrimidine derivatives as CDK inhibitors” (Aurigene Discovery Technologies Limited, priority 2015, dated 2021)

Legend:
[1] = system: RNA polymerase II CTD phosphorylation (MDA-MB-231/NCI-H358 cells); assay: Inhibition of RNA polymerase II CTD phosphorylation in cell western assay; format: cell-based; settings: 4 hours incubation, phospho RNA Pol II Ser-5 or Ser-2
Description: 25000 cells (MDA-MB-231/NCI-H358) were seeded in 96 well black clear bottom plate incubated for overnight before addition of selected compound. 3 fold dilutions of selected compound diluted in DMSO starting from 10 μM, added to cells and incubated for 4 hours at 37° C., 5% CO2 incubator. Cells were washed once with 100 μl of phosphate buffered saline (sigma #P3813), then fixed with 100 μl/well of 4% Para formaldehyde for 60 min at room temperature, in dark. The cells were washed 3 times with 100 μl of wash buffer (PBS with 0.1% Triton-X-100), later blocked for 2 hours at room temperature in blocking buffer (5% BSA in PBST). Cells were stained overnight at 4° C. with Phospho RNA Pol II (S5) (Millipore #04-1572, Abcam #5131) or Phospho RNA Pol II (Ser-2), antibody (Bethyl labs #A300-654-A) in blocking buffer. Post incubation cells were washed with Delifia wash buffer (Perkin Elmer #4010-0010). Cells were treated with LANCE secondary antibodies (LANCE® Eu-W1024 perkin elmer #AD-0076 for phospho Ser-5 CTD RNA pol-II and Delfia Eu-N1 anti rabbit IgG Perkin elmer #AD0106 for phospho Ser-2 CTD RNA pol-II) for 2 hours in assay buffer (Perkin Elmer #1244-111), Cells were washed 3 times with Delfia wash buffer post incubation, Enhancement solution (Perkin Elmer #1244-105) added and incubated for 20 mins. Europium readings were taken in Victor-3 instrument. Cell normalization was done using Hoechst dye (0.5 μg/ml).
Selected compounds were screened in the above mentioned assay procedure. The EC50 values are summarised in the below table; wherein group “A” refers to an EC50 value of less than or equal to 1 μM, group “B” refers to EC50 value in range of 1 to 10 μM and group “C” refers to EC50 value of greater than 10 μM.

CDK7/CycH/MNAT1 = CDK7/CycH/MNAT1 (Homo sapiens (Human), UniProt P50613); assay: Biochemical assay for CDK7 (TR-FRET kinase assay); settings: 60 min pre-incubation, 1 mM ATP; for inhibition at 10 µM / % inhibition @ 10 μM: 10 μM compound; for inhibition at 10 µM: read-out: % inhibition @ 10 μM; for IC50: read-out: IC50
Summary of the method: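 CDK7/CycH/MNAT1 (5 nM) was preincubated with compound for 60 min at room temperature, then reacted for 60 min with 100 nM ULight-MBP and 1 mM ATP in 1% DMSO. Irreversibility was probed with 20, 60 and 180 min preincubations.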

Chain of CDK7/CycH/MNAT1 (P50613 whole entry): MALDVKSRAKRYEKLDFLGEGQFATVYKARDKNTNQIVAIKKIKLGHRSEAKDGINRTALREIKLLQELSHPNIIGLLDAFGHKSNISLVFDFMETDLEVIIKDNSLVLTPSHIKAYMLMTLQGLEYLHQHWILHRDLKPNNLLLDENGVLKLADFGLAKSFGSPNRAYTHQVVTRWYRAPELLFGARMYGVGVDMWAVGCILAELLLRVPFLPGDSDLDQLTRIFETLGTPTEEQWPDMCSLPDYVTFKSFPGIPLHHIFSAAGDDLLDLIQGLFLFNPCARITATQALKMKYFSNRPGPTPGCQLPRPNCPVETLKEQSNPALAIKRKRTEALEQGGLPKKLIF
Chain of CDK7/CycH/MNAT1 (P51946 whole entry partner): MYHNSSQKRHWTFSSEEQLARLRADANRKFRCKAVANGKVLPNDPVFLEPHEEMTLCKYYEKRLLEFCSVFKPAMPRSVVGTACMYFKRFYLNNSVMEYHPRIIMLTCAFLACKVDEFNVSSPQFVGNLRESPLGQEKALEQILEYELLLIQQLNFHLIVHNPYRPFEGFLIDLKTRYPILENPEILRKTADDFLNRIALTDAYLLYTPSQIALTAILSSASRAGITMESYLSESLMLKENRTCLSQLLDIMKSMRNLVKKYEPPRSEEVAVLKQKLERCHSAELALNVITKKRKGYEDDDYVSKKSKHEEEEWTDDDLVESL
Chain of CDK7/CycH/MNAT1 (P51948 whole entry partner): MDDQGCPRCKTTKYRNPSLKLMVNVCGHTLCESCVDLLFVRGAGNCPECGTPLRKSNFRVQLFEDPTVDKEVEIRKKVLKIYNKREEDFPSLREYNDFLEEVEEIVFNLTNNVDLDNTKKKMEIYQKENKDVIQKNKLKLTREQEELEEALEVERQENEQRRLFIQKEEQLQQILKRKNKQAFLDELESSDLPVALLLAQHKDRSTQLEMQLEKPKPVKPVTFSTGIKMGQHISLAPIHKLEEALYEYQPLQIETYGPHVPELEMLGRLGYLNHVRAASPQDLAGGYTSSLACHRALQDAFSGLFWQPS

EC50 [1] [µM]	inhibition at 10 µM (CDK7/CycH/MNAT1) [%]	IC50 (CDK7/CycH/MNAT1) [µM]	% inhibition @ 10 μM (CDK7/CycH/MNAT1) [%]	Structure (SMILES)
1 to 10	94	< 0.3		C=CC(=O)N1CCC(C(=O)Nc2cccc(CNc3nc(NC4CCOCC4)nc4c(C(C)C)cnn34)c2)C1 (single isomer, unassigned) [Compound 5, 1-acryloyl-N-(3-(((8-isopropyl-2-((tetrahydro-2H-pyran-4-yl)amino)pyrazolo[1,5-a][1,3,5]triazin-4-yl)amino)methyl)phenyl)pyrrolidine-3-carboxamide]
1 to 10		< 0.3	91	C=CC(=O)N1CCC(C(=O)Nc2cccc(CNc3nc(NC4CCOCC4)nc4c(C(C)C)cnn34)c2)C1 (single isomer, unassigned) [Compound 6, 1-acryloyl-N-(3-(((8-isopropyl-2-((tetrahydro-2H-pyran-4-yl)amino)pyrazolo[1,5-a][1,3,5]triazin-4-yl)amino)methyl)phenyl)pyrrolidine-3-carboxamide]
1 to 10		0.3 to 1	93	C=CC(=O)N1CCC(C(=O)Nc2cccc(CNc3nc(NC4CCCC(O)C4)nc4c(C(C)C)cnn34)c2)C1 (single isomer, unassigned) [Compound 13, 1-acryloyl-N-(3-(((2-((3-hydroxycyclohexyl)amino)-8-isopropylpyrazolo[1,5-a][1,3,5]triazin-4-yl)amino)methyl)phenyl)pyrrolidine-3-carboxamide]
1 to 10	98	< 0.3		C=CC(=O)N1CCC(C(=O)Nc2cccc(CNc3nc(OC4CCN(C)CC4)nc4c(C(C)C)cnn34)c2)C1 (single isomer, unassigned) [Compound 109, 1-acryloyl-N-(3-(((8-isopropyl-2-((1-methylpiperidin-4-yl)oxy)pyrazolo[1,5-a][1,3,5]triazin-4-yl)amino)methyl)phenyl)pyrrolidine-3-carboxamide]
1 to 10		< 0.3	99	C=CC(=O)N1CCC(C(=O)Nc2cccc(CNc3nc(OC4CCN(C)CC4)nc4c(C(C)C)cnn34)c2)C1 (single isomer, unassigned) [Compound 110, 1-acryloyl-N-(3-(((8-isopropyl-2-((1-methylpiperidin-4-yl)oxy)pyrazolo[1,5-a][1,3,5]triazin-4-yl)amino)methyl)phenyl)pyrrolidine-3-carboxamide]
≤ 1	88	0.3 to 1		C=CC(=O)N1CCCC(C(=O)Nc2cccc(CNc3nc(NC4CCOCC4)nc4c(C(C)C)cnn34)c2)C1 (centres unmarked) [Compound 1, 1-acryloyl-N-(3-(((8-isopropyl-2-((tetrahydro-2H-pyran-4-yl)amino)pyrazolo[1,5-a][1,3,5]triazin-4-yl)amino)methyl)phenyl)piperidine-3-carboxamide]
≤ 1	98	< 0.3		C=CC(=O)N1CCC1C(=O)Nc1cccc(CNc2nc(NC3CCOCC3)nc3c(C(C)C)cnn23)c1 (centres unmarked) [Compound 2, 1-acryloyl-N-(3-(((8-isopropyl-2-((tetrahydro-2H-pyran-4-yl)amino)pyrazolo[1,5-a][1,3,5]triazin-4-yl)amino)methyl)phenyl)azetidine-2-carboxamide]
≤ 1	96	< 0.3		C=CC(=O)N1CCCC1C(=O)Nc1cccc(CNc2nc(NC3CCOCC3)nc3c(C(C)C)cnn23)c1 (centres unmarked) [Compound 3, 1-acryloyl-N-(3-(((8-isopropyl-2-((tetrahydro-2H-pyran-4-yl)amino)pyrazolo[1,5-a][1,3,5]triazin-4-yl)amino)methyl)phenyl)pyrrolidine-2-carboxamide]
≤ 1	93	< 0.3		C=CC(=O)N1CCC(C(=O)Nc2cccc(CNc3nc(NC4CCOCC4)nc4c(C(C)C)cnn34)c2)C1 (centres unmarked) [Compound 4, 1-acryloyl-N-(3-(((8-isopropyl-2-((tetrahydro-2H-pyran-4-yl)amino)pyrazolo[1,5-a][1,3,5]triazin-4-yl)amino)methyl)phenyl)pyrrolidine-3-carboxamide]
≤ 1	96	< 0.3		C=CC(=O)N1CCCC(C(=O)Nc2cccc(CNc3nc(NC4CCN(C)CC4)nc4c(C(C)C)cnn34)c2)C1 (centres unmarked) [Compound 8, 1-acryloyl-N-(3-(((8-isopropyl-2-((1-methylpiperidin-4-yl)amino)pyrazolo[1,5-a][1,3,5]triazin-4-yl)amino)methyl)phenyl)piperidine-3-carboxamide]
1 to 10	97	< 0.3		C=CC(=O)N1CCC(C(=O)Nc2cccc(CNc3nc(N[C@@H]4CCNC[C@H]4F)nc4c(C(C)C)cnn34)c2)C1 (stereo partly drawn) [Compound 14, 1-acryloyl-N-(3-(((2-(((3R,4R)-3-fluoropiperidin-4-yl)amino)-8-isopropylpyrazolo[1,5-a][1,3,5]triazin-4-yl)amino)methyl)phenyl)pyrrolidine-3-carboxamide]
> 10	98	< 0.3		C=CC(=O)N1CCC(C(=O)Nc2cccc(CNc3nc(NC4CCCC(N)C4)nc4c(C(C)C)cnn34)c2)C1 (centres unmarked) [Compound 15, 1-acryloyl-N-(3-(((2-((3-aminocyclohexyl)amino)-8-isopropylpyrazolo[1,5-a][1,3,5]triazin-4-yl)amino)methyl)phenyl)pyrrolidine-3-carboxamide]
≤ 1	101	< 0.3		C=CC(=O)N1CC(C(=O)Nc2cccc(CNc3nc(NC4CCOCC4)nc4c(C(C)C)cnn34)c2)C1 [Compound 18, 1-acryloyl-N-(3-(((8-isopropyl-2-((tetrahydro-2H-pyran-4-yl)amino)pyrazolo[1,5-a][1,3,5]triazin-4-yl)amino)methyl)phenyl)azetidine-3-carboxamide]
	73	> 1		C=CC(=O)N1CCC(C(=O)Nc2cccc(CNc3nc(OC)nc4c(C(C)C)cnn34)c2)CC1 [Compound 136, 1-acryloyl-N-(3-(((8-isopropyl-2-methoxypyrazolo[1,5-a][1,3,5]triazin-4-yl)amino)methyl)phenyl)piperidine-4-carboxamide]
	64	> 1		CC(C)c1cnn2c(NCC3CCN(C(=O)/C=C/CN4CCCC4)CC3)nc(NC3CCOCC3)nc12 [Compound 138, (E)-1-(4-(((8-isopropyl-2-((tetrahydro-2H-pyran-4-yl)amino)pyrazolo[1,5-a][1,3,5]triazin-4-yl)amino)methyl)piperidin-1-yl)-4-(pyrrolidin-1-yl)but-2-en-1-one]
	98	< 0.3		C=CC(=O)N1CCC1C(=O)Nc1cccc(CNc2cc(NC3CCOCC3)nc3c(C(C)C)cnn23)c1 (centres unmarked) [Compound 139, 1-acryloyl-N-(3-(((3-isopropyl-5-((tetrahydro-2H-pyran-4-yl)amino)pyrazolo[1,5-a]pyrimidin-7-yl)amino)methyl)phenyl)azetidine-2-carboxamide]

Structure (SMILES)	EC50 [1] [µM]	inhibition at 10 µM (CDK7/CycH/MNAT1) [%]	IC50 (CDK7/CycH/MNAT1) [µM]	% inhibition @ 10 μM (CDK7/CycH/MNAT1) [%]
CC(C)c1cnn2c(NCc3ccccc3N3CCN(C(=O)/C=C/CN(C)C)CC3)nc(NC3CCOCC3)nc12 [Compound 137, (E)-4-(dimethylamino)-1-(4-(2-(((8-isopropyl-2-((tetrahydro-2H-pyran-4-yl)amino)pyrazolo[1,5-a][1,3,5]triazin-4-yl)amino)methyl)phenyl)piperazin-1-yl)but-2-en-1-one]		99	< 0.3	
